This is an account of results in patent US9168259B2 (GRÜNENTHAL GMBH, priority 2010, dated 2015).

The assay has as its target T1, KCNQ2/3 channels (Homo sapiens, UniProt O43525+O43526).
T1 construct: expressed in transfected cells
Description: Fluorescence assay using a voltage sensitive dye (fluorimetry). It is filed as cell-based. Particulars: CHO-K1 cells expressing KCNQ2/3; for Emax: CHO-K1, plateau effect relative to saturated retigabine (50 μM) = 100%, negative values = antagonistic, read-out: Fluorimetry % efficacy (retigabine = 100%); for EC50: IC50 where % efficacy is negative, read-out: Fluorimetry EC50/IC50.

T1 sequence (O43526 whole entry): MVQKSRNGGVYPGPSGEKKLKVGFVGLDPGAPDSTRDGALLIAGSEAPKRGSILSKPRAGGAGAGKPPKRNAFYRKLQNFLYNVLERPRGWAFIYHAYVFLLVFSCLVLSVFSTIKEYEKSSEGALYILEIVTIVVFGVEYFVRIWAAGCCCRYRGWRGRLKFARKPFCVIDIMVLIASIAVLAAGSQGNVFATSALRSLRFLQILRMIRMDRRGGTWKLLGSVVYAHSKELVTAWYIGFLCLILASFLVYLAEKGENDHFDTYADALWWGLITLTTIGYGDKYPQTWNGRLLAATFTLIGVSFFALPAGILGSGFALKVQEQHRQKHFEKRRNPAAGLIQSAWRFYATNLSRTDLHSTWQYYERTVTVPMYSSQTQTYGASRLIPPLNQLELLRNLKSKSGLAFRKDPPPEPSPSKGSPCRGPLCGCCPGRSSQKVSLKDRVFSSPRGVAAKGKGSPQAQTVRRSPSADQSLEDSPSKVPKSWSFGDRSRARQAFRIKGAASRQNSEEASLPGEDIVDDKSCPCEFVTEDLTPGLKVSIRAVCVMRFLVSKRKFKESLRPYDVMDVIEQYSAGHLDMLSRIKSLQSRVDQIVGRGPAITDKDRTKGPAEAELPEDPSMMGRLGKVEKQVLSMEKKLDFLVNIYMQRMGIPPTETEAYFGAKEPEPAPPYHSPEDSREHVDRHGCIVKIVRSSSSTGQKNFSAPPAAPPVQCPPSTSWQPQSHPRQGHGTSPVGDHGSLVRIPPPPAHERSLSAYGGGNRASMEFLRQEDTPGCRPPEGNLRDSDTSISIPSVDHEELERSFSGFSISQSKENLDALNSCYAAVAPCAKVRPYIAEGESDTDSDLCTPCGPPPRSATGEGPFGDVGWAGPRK
T1 sequence (O43525 whole entry): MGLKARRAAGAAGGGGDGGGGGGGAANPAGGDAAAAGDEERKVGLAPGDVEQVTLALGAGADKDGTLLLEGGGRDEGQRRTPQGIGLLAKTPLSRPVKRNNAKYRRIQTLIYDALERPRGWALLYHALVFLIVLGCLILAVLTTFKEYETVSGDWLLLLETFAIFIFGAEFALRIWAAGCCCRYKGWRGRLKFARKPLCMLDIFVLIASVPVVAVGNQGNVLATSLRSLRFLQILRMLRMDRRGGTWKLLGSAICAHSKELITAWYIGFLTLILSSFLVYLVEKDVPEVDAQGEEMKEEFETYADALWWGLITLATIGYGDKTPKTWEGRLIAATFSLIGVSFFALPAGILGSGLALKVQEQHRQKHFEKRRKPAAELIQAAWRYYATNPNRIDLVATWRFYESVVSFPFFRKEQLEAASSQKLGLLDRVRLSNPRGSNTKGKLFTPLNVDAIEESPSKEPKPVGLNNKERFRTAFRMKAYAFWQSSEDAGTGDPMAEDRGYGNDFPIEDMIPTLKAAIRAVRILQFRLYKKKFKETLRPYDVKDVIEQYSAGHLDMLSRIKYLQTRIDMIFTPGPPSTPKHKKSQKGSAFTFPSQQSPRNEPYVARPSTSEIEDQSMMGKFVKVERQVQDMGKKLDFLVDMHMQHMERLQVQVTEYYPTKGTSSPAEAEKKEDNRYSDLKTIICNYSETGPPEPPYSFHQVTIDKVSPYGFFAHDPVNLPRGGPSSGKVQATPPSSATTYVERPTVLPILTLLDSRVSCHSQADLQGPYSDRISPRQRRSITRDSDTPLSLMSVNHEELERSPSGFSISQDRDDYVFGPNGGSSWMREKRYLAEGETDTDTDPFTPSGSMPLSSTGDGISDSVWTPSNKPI

Take `CCCOc1nc(N2CCOCC2)cc(C)c1C(=O)NCc1cccc(F)c1` [Example 111, N-[(3-Fluorophenyl)-methyl]-4-methyl-6-morpholin-4-yl-2-propoxy-pyridine-3-carboxylic acid amide]: the Emax turned out to be 153% and the EC50 was 109 nM.
For `CCSc1nc(N2CC(=O)C2)cc(C)c1C(=O)NCc1cccc(F)c1` [Example 112, 2-Ethylsulfanyl-N-[(3-fluorophenyl)-methyl]-4-methyl-6-(3-oxo-azetidin-1-yl)-pyridine-3-carboxylic acid amide], the Emax was 130% and the EC50 was 2740 nM.
For the molecule `CCSc1nc(N2CCOCC2)cc(C)c1C(=O)NCCCc1cccc(F)c1` [Example 113, 2-Ethylsulfanyl-N-[3-(3-fluorophenyl)-propyl]-4-methyl-6-morpholin-4-yl-pyridine-3-carboxylic acid amide], the Emax worked out at 192% and the EC50 was determined as 212 nM.
Taken in the same sequence, the figures for `CCSc1nc(N2CCOCC2)cc(C)c1C(=O)NCCCc1cccnc1` [Example 114, 2-Ethylsulfanyl-4-methyl-6-morpholin-4-yl-N-(3-pyridin-3-yl-propyl)-pyridine-3-carboxylic acid amide] were 126% and 9380 nM.
On to `CCSc1nc(N2CCOCC2)cc(C)c1C(=O)NCCCc1ccncc1` [Example 115, 2-Ethylsulfanyl-4-methyl-6-morpholin-4-yl-N-(3-pyridin-4-yl-propyl)-pyridine-3-carboxylic acid amide], for which the Emax is 96% and the EC50 came to 7970 nM.
Regarding `CCSc1nc(N2CCOCC2)cc(C)c1C(=O)NCCCCC(C)(C)C` [Example 116, N-(5,5-Dimethyl-hexyl)-2-ethylsulfanyl-4-methyl-6-morpholin-4-yl-pyridine-3-carboxylic acid amide], the Emax was 210% and the EC50 worked out at 131 nM.
Taken in the same sequence, the figures for `COc1nc(N2CCOCC2)cc(C)c1C(=O)NCc1ccc(C(F)(F)F)cc1` [Example 117, 2-Methoxy-4-methyl-6-morpholin-4-yl-N-[[4-(trifluoromethyl)-phenyl]-methyl]pyridine-3-carboxylic acid amide] were 128% and 268 nM.
As to `CCSc1nc(N(C)Cc2ccncc2)cc(C)c1C(=O)NCc1cccc(F)c1` [Example 118, 2-Ethylsulfanyl-N-[(3-fluorophenyl)-methyl]-4-methyl-6-[methyl-(pyridin-4-yl-methyl)-amino]-pyridine-3-carboxylic acid amide], the Emax stood at 3%.
With `CCSc1nc(N(C)Cc2cccnc2)cc(C)c1C(=O)NCc1cccc(F)c1` [Example 119, 2-Ethylsulfanyl-N-[(3-fluorophenyl)-methyl]-4-methyl-6-[methyl-(pyridin-3-yl-methyl)-amino]-pyridine-3-carboxylic acid amide], the Emax came out at 91% and the EC50 is 2420 nM.
In the case of `CCSc1nc(N(C)C(=O)c2ccc(F)cc2)cc(C)c1C(=O)NCc1cccc(F)c1` [Example 120, 2-Ethylsulfanyl-6-[(4-fluoro-benzoyl)-methyl-amino]-N-[(3-fluorophenyl)-methyl]-4-methyl-pyridine-3-carboxylic acid amide], the Emax worked out at 10%.
For the molecule `CCSc1nc(N(C)Cc2ccccn2)cc(C)c1C(=O)NCc1cccc(F)c1` [Example 121, 2-Ethylsulfanyl-N-[(3-fluorophenyl)-methyl]-4-methyl-6-[methyl-(pyridin-2-yl-methyl)-amino]-pyridine-3-carboxylic acid amide], the Emax stood at 35%.
Same read-out and setting: then `CCSc1nc(N(C)C(C)=O)cc(C)c1C(=O)NCc1cccc(F)c1` [Example 123, 6-(Acetyl-methyl-amino)-2-ethylsulfanyl-N-[(3-fluorophenyl)-methyl]-4-methyl-pyridine-3-carboxylic acid amide], with 67%.
As to `CCSc1nc(N2CCOCC2)cc(C)c1C(=O)NCc1ccc(Cl)cc1` [Example 124, N-[(4-Chlorophenyl)-methyl]-2-ethylsulfanyl-4-methyl-6-morpholin-4-yl-pyridine-3-carboxylic acid amide], the Emax stood at 149% and the EC50 is 82 nM.
Regarding `CCSc1nc(N2CCOCC2)cc(C)c1C(=O)NCc1cccc(Cl)c1` [Example 125, N-[(3-Chlorophenyl)-methyl]-2-ethylsulfanyl-4-methyl-6-morpholin-4-yl-pyridine-3-carboxylic acid amide], the Emax was found to be 152% and the EC50 was 87 nM.
In the case of `CCSc1nc(N(CCOC)CCOC)cc(C)c1C(=O)NCc1cccc(F)c1` [Example 126, 6-[Bis(2-methoxy-ethyl)-amino]-2-ethylsulfanyl-N-[(3-fluorophenyl)-methyl]-4-methyl-pyridine-3-carboxylic acid amide], the Emax turned out to be 145% and the EC50 worked out at 2090 nM.
`CCN(C)c1nc(N2CCOCC2)cc(C)c1C(=O)NCc1cccc(F)c1` [Example 127, 2-(Ethyl-methyl-amino)-N-[(3-fluorophenyl)-methyl]-4-methyl-6-morpholin-4-yl-pyridine-3-carboxylic acid amide]: the Emax worked out at 238% and the EC50 came to 385 nM.
Regarding `CCSc1nc(N(C)CCCOC)cc(C)c1C(=O)NCc1cccc(F)c1` [Example 128, 2-Ethylsulfanyl-N-[(3-fluorophenyl)-methyl]-6-(3-methoxy-propyl-methyl-amino)-4-methyl-pyridine-3-carboxylic acid amide], the Emax turned out to be 142% and the EC50 is 785 nM.
Turning to `CCSc1nc(N2CCOCC2)cc(C)c1C(=O)NCCCc1ccccc1F` [Example 129, 2-Ethylsulfanyl-N-[3-(2-fluorophenyl)-propyl]-4-methyl-6-morpholin-4-yl-pyridine-3-carboxylic acid amide], the Emax was found to be 206% and the EC50 came to 221 nM.
Take `CCSc1nc(N2CCOCC2)cc(C)c1C(=O)NCc1cccc(OC(F)(F)F)c1` [Example 130, 2-Ethylsulfanyl-4-methyl-6-morpholin-4-yl-N-[[3-(trifluoromethyloxy)-phenyl]methyl]-pyridine-3-carboxylic acid amide]: the Emax came out at 148% and the EC50 was determined as 74 nM.
Consider `CCSc1nc(N2CCOCC2)cc(C)c1C(=O)NCc1cccc(COC)c1` [Example 131, 2-Ethylsulfanyl-N-[[3-(methoxymethyl)-phenyl]-methyl]-4-methyl-6-morpholin-4-yl-pyridine-3-carboxylic acid amide], for which the Emax came out at 137% and the EC50 was determined as 1250 nM.
Taken in the same sequence, the figures for `CCOc1nc(N2CCOCC2)cc(C)c1C(=O)NCc1ccc(C(F)(F)F)cc1` [Example 132, 2-Ethoxy-4-methyl-6-morpholin-4-yl-N-[[4-(trifluoromethyl)-phenyl]-methyl]pyridine-3-carboxylic acid amide] were 122% and 110 nM.
`CCOc1nc(N2CCOCC2)cc(C)c1C(=O)NCCCC(F)(F)F` [Example 133, 2-Ethoxy-4-methyl-6-morpholin-4-yl-N-(4,4,4-trifluoro-butyl)-pyridine-3-carboxylic acid amide]: the Emax stood at 235% and the EC50 came out at 392 nM.
`CCSc1nc(N2CCOCC2)cc(C)c1C(=O)NCc1ccc2c(c1)OCO2` [Example 134, N-(1,3-Benzodioxol-5-yl-methyl)-2-ethylsulfanyl-4-methyl-6-morpholin-4-yl-pyridine-3-carboxylic acid amide]: the Emax came out at 159% and the EC50 stood at 1140 nM.
Taken in the same sequence, the figures for `CCSc1nc(N2CCOCC2)cc(C)c1C(=O)NCc1ccc(C(F)(F)F)cc1F` [Example 135, 2-Ethylsulfanyl-N-[[2-fluoro-4-(trifluoromethyl)-phenyl]-methyl]-4-methyl-6-morpholin-4-yl-pyridine-3-carboxylic acid amide] were 43% and 54 nM.
`CCSc1nc(N2CCCCCC2)cc(C)c1C(=O)NCc1cccc(F)c1` [Example 136, 6-(Azepan-1-yl)-2-ethylsulfanyl-N-[(3-fluorophenyl)-methyl]-4-methyl-pyridine-3-carboxylic acid amide]: the Emax was 171% and the EC50 turned out to be 108 nM.
In the case of `CCSc1nc(N2CCOCC2)cc(C)c1C(=O)NCc1ccc(OC)cc1` [Example 137, 2-Ethylsulfanyl-N-[(4-methoxyphenyl)-methyl]-4-methyl-6-morpholin-4-yl-pyridine-3-carboxylic acid amide], the Emax was 151% and the EC50 came out at 1070 nM.
Taken in the same sequence, the figures for `CCSc1nc(N2CCO[C@@H](C)C2)cc(C)c1C(=O)NCc1cccc(F)c1` [Example 138, 2-Ethylsulfanyl-N-[(3-fluorophenyl)-methyl]-4-methyl-6-[(2S)-2-methyl-morpholin-4-yl]-pyridine-3-carboxylic acid amide] were 125% and 170 nM.
With `CCSc1nc(N2CCO[C@H](C)C2)cc(C)c1C(=O)NCc1cccc(F)c1` [Example 139, 2-Ethylsulfanyl-N-[(3-fluorophenyl)-methyl]-4-methyl-6-[(2R)-2-methyl-morpholin-4-yl]-pyridine-3-carboxylic acid amide], the Emax was determined as 146% and the EC50 is 770 nM.
As to `COc1nc(N2CCOCC2)cc(C)c1C(=O)NCCCC(F)(F)F` [Example 140, 2-Methoxy-4-methyl-6-morpholin-4-yl-N-(4,4,4-trifluoro-butyl)-pyridine-3-carboxylic acid amide], the Emax was found to be 227% and the EC50 is 1120 nM.
Taken in the same sequence, the figures for `CCSc1nc(N2CCOCC2)cc(C)c1C(=O)NCCCC1CC1` [Example 141, N-(3-Cyclopropyl-propyl)-2-ethylsulfanyl-4-methyl-6-morpholin-4-yl-pyridine-3-carboxylic acid amide] were 167% and 242 nM.
